One may read the IC50 as the concentration that gives 50% inhibition.

The values that follow come from patent publication EP4741391A1, “NMT INHIBITOR, AND PREPARATION METHOD THEREFOR AND USE THEREOF” (Nanjing Synnocare Pharmaceutical Technology Co., Ltd., priority 2023, dated 2025).

One test deals with T1, NMT1 enzyme (Homo sapiens, UniProt P30419).
T1 sequence (P30419 1-496): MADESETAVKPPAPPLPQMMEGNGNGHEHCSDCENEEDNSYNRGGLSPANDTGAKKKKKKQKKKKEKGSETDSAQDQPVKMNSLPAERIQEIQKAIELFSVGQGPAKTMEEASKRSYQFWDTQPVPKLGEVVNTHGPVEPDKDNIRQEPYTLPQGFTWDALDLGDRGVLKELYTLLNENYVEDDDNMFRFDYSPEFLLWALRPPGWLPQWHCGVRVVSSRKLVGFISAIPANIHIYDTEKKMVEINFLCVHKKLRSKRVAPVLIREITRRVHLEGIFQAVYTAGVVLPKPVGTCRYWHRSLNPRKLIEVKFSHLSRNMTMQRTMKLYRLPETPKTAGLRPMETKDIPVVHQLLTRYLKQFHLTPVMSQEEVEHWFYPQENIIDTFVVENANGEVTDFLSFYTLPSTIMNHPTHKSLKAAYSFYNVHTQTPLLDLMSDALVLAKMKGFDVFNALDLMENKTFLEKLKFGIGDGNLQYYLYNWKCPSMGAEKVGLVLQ
Description: Inhibitory activity on NMT1 enzyme catalysis (fluorescence intensity, CPM probe). The note with it: 6 nM NMT1 enzyme, 1.25 µM myristoyl-CoA, 20 µM HSPP60 SRC peptide, 45 minutes at 25 °C. Type of test: biochemical. On the procedure: This study evaluated the ability of the compounds of the invention to inhibit NMT1 catalytic activity in vitro. The experiment used a FI (Fluorescence Intensity) analysis method, characterizing NMT1 inhibitors under conditions of 1.25 µM myristoyl-CoA (Lithium salt, Sigma, M4414). In this experiment, a synthesized peptide with the sequence H-Gly-Ser-Asn-Lys-Ser-Lys-Pro-Lys-NH2, HSPP60SRC (Nanjing Peptide Industry, NJP23953), was used as the reaction substrate. The final concentration of the NMT1 enzyme was 6 nM, the final concentration of CPM (Reactive thiol fluorescence probe, Invitrogen, D346) was 1 µM, the final concentration of HSPP60 SRC was 20 µM, and the final concentration of DMSO was 0.5%.
Compounds were dissolved in DMSO to obtain 10 mM stock solutions. Dose-response solutions were prepared with a top endpoint compound concentration of 3 mM, followed by three-fold serial dilutions in DMSO, totaling ten data points. Using an ECHO acoustic liquid handler (BECKMAN, ECHO 655 system), 0.05 µL of the diluted compound solutions was transferred to a 384-well assay plate (Corning, CLS4514). Then, 2.5 µL of the NMT1 enzyme working solution was added to the 384-well assay plate, followed by incubation at 25 °C for 10 minutes. Subsequently, 5 µL of the CPM and myristoyl-CoA working solution was added, the plate was centrifuged at 1000 rpm for 1 minute, and then 2.5 µL of the HSPP60 SRC working solution was added to initiate the reaction. The reaction was incubated at 25 °C for 45 minutes. The FI signal ([…]; ex: 405 nm) was detected using an HTS high-throughput screening multifunctional microplate reader (BMG, PHERA star FSX).
The inhibition rate of the compounds on NMT1 enzyme catalytic activity was calculated using the following formula: Inhibition Percentage (%) = 100 * (Mean of DMSO group - Mean of Compound group) / (Mean of DMSO group - Mean of Blank control group). The IC50 curve of the compounds was fitted using the software XLfit 5.5.0 according to the nonlinear regression equation. Table 1 provides the inhibitory activity of the compounds of the invention on NMT1 enzyme catalysis.

The subject of another test is MV-4-11 cells. Description: Anti-proliferative activity against MV-4-11 cells (three-day cell viability chemiluminescence). Type of test: cell-based. The note with it: Homo sapiens, MV4-11, 72 h, MV-4-11 human monocytic leukemia cells, three days of exposure. On the procedure:
This study utilized a cell proliferation assay to analyze the cytotoxicity of MV-4-11 human monocytic leukemia cells after three days of exposure to NMT1 inhibitors. The MV-4-11 cell line was purchased from Nanjing Cobuilder Biotechnology Co., Ltd., and cultured in IMDM medium (Viva cell) in an incubator (Thermo) at 37 °C with 5% CO2. In this experiment, NMT1 inhibitors were dissolved in DMSO to obtain 600 µM stock solutions. Dose-response solutions were prepared with a top endpoint compound concentration of 3 µM, followed by three-fold serial dilutions in DMSO, totaling eight data points. The final concentration of DMSO was 0.5%.
MV-4-11 cells were seeded into a white 96-well plate, 80 µL of cell suspension per well, containing 6000 MV-4-11 cells. The cell plate was placed in the CO2 incubator for overnight culture. Then, 20 µL of NMT1 inhibitor solutions at different concentrations were added to the wells. The 96-well plate was placed back into the incubator for three days. Another cell plate was prepared, and the signal was read on the day of drug addition to serve as the maximum value (Max value in the equation below) for data analysis. To this cell plate, 25 µL of cell viability chemiluminescence detection reagent was added per well, followed by incubation at room temperature for 10 minutes to stabilize the luminescence signal. A multi-label analyzer was used for reading.
The raw data were converted into inhibition rates using the equation (Sample - Min) / (Max - Min) * 100%. The IC50 values were then determined by fitting a four-parameter curve (using the "log(inhibitor) vs. response - Variable slope" model in GraphPad Prism). Min: wells treated with 0.5% DMSO; Max: Day 0 wells. Table 1 provides the inhibitory activity of the compounds of the invention on MV-4-11 cell proliferation. Table 1: Compound Inhibitory Activity against NMT1 Enzyme (IC50) and Anti-proliferative Activity against MV-4-11 Cells (IC50)

With `Cc1c(CCOc2cc(Cl)ccc2-c2ccn3ncc(CN(C)C)c3c2)c(C(=O)N(C)C)nn1C` [Compound 1, 4-{2-[(5-chloro-2-{3-[(dimethylamino)methyl]-pyrazolo [1,5-a]pyridin-5-yl}phenyl)oxy]ethyl}-1,5,N,N-tetramethylpyrazole-3-carboxamide], the values for the IC50 at NMT1 enzyme and in the test on MV-4-11 cells were 1.77 nM and 17.1 nM, respectively.
The corresponding values for `CNCc1cnn2ccc(-c3ccc(Cl)cc3OCCc3c(C(=O)N(C)C)nn(C)c3C)cc12` [Compound 2, 4-{2-[(5-chloro-2-{3-[(methylamino)methyl]pyrazolo[1,5-a]pyridin-5-yl}phenyl)oxy]ethyl}-1,5,N,N-tetramethyl pyrazole-3-carboxamide] are 2.13 nM and 23.4 nM.
With `Cc1c(CCOc2cc(Cl)ccc2-c2ccn3ncc(CN)c3c2)c(C(=O)N(C)C)nn1C` [Compound 3, 4-[2-({2-[3-(aminomethyl)pyrazolo[1,5-a]pyridin-5-yl]-5-chlorophenyl}oxy)ethyl]-1,5,N,N-tetramethylpyrazole-3-carboxamide], the half-inhibitory concentration (IC50) against NMT1 enzyme turned out to be 3.45 nM; in the test on MV-4-11 cells, 41.2 nM.
For `Cc1c(CCOc2cc(F)ccc2-c2ccn3ncc(CN(C)C)c3c2)c(C(=O)N(C)C)nn1C` [Compound 4, 4-{2-[(2-{3-[(dimethylamino)methyl]pyrazolo[1,5-a]pyridin-5-yl}-5-fluorophenyl)oxy]ethyl} -1 ,5,N,N-tetrameth ylpyrazole-3-carboxamide], the IC50 came to 1.65 nM against NMT1 enzyme and 11.4 nM in the test with MV-4-11 cells.
The corresponding values for `Cc1c(CCOc2c(F)cccc2-c2ccn3ncc(CN(C)C)c3c2)c(C(=O)N(C)C)nn1C` [Compound 5, 4-{2-[(6-{3-[(dimethylamino)methyl]pyrazolo[1,5-a]pyridin-5-yl}-2-fluorophenyl)oxy]ethyl} -1 ,5,N,N-tetrameth ylpyrazole-3-carboxamide] are 1.74 nM and 11.8 nM.
The corresponding values for `Cc1c(CCOc2ccc(F)cc2-c2ccn3ncc(CN(C)C)c3c2)c(C(=O)N(C)C)nn1C` [Compound 6, 4-{2-[(2-{3-[(dimethylamino)methyl]pyrazolo[1,5-a]pyridin-5-yl}-4-fluorophenyl)oxy]ethyl}-1,5,N,N-tetrameth ylpyrazole-3-carboxamide] are 2.89 nM and 30.2 nM.
The corresponding values for `Cc1c(CCOc2c(-c3ccn4ncc(CN(C)C)c4c3)ccc(F)c2F)c(C(=O)N(C)C)nn1C` [Compound 7, 4-{2-[(6-{3-[(dimethylamino)methyl]pyrazolo[1,5-a]pyridin-5-yl}-2,3-difluorophenyl)oxy]ethyl}-1,5,N,N-tetram ethylpyrazole-3-carboxamide] are 2.1 nM and 19.4 nM.
Consider `Cc1c(CCOc2c(-c3ccn4ncc(CN(C)C)c4c3)ccc(Cl)c2F)c(C(=O)N(C)C)nn1C` [Compound 8, 4-{2-[(3-chloro-6-{3-[(dimethylamino)methyl]pyrazolo[1,5-a]pyridin-5-yl}-2-fluorophenyl)oxy]ethyl}-1,5,N,N-tetramethylpyrazole-3-carboxamide], for which the half-maximal inhibitory concentration (IC50) turned out to be 2.89 nM against NMT1 enzyme and 28.4 nM with MV-4-11 cells.
With `Cc1c(CCOc2c(-c3ccn4ncc(CN(C)C)c4c3)ccc(Cl)c2Cl)c(C(=O)N(C)C)nn1C` [Compound 9, 4-{2-[(2,3-dichloro-6-{3-[(dimethylamino)methyl]pyrazolo[1,5-a]pyridin-5-yl}phenyl)oxy]ethyl}-1,5,N,N-tetra methylpyrazole-3-carboxamide], the IC50 came out at 3.68 nM on NMT1 enzyme and 32.5 nM in the test with MV-4-11 cells.
For `Cc1c(CCOc2c(F)cc(F)cc2-c2ccn3ncc(CN(C)C)c3c2)c(C(=O)N(C)C)nn1C` [Compound 10, 4-{2-[(6-{3-[(dimethylamino)methyl]pyrazolo[1,5-a]pyridin-5-yl}-2,4-difluorophenyl)oxy]ethyl}-1,5,N,N-tetram ethylpyrazole-3-carboxamide] the same measures were 2.59 nM and 26.4 nM.
For `Cc1c(COc2cc(Cl)ccc2-c2ccn3ncc(CN(C)C)c3c2)c(C(=O)N(C)C)nn1C` [Compound 11, 4-{[(5-chloro-2-{3-[(dimethylamino)methyl]pyrazolo[1,5-a]pyridin-5-yl}phenyl)oxy]methyl}-1,5,N,N-tetrameth ylpyrazole-3-carboxamide] the same measures were 6.31 nM and 58.7 nM.
Compound `CNCc1cnn2ccc(-c3ccc(F)c(F)c3OCCc3c(C(C)(C)O)nn(C)c3C)cc12` [Compound 29, 2-(4-{2-[(2,3-difluoro-6-{3-[(methylamino)methyl]-pyrazolo[1,5-a]pyridin-5-yl}phenyl)oxy]ethyl}-1,5-dimethylpyrazol-3-yl)propan-2-ol] returned a 50% inhibitory concentration (IC50) against NMT1 enzyme of 1.7 nM.
Same read-out and setting: for `CNCc1cnn2ccc(-c3ccc(F)c(F)c3OCCc3c(C(O)C(C)(C)C)nn(C)c3C)cc12` (stereo not shown) [Compound 30, 1-(4-{2-[(2,3-difluoro-6-{3-[(methylamino)methyl]-pyrazolo[1,5-a]pyridin-5-yl}phenyl)oxy]ethyl}-1,5-dimethylpyrazol-3-yl)-2,2-dimethylpr opan-1-ol] the value was 1.62 nM; for `CNCc1cnn2ccc(-c3ccc(F)c(F)c3OCCc3c(C(C)O)nn(C)c3C)cc12` (stereo not shown) [Compound 31, 1-(4-{2-[(2,3-difluoro-6-{3-[(methylamino)methyl]-pyrazolo[1,5-a]pyridin-5-yl}phenyl)oxy]ethyl}-1,5-dimethylpyrazol-3-yl)ethan-1-ol], 1.82 nM.
Same read-out and setting: for `CNCc1cnn2ccc(-c3ccc(F)c(F)c3OCCc3c(C(O)C(C)C)nn(C)c3C)cc12` (stereo not shown) [Compound 32, 1-(4-{2-[(2,3-difluoro-6-{3-[(methylamino)methyl]pyrazolo[1,5-a]pyridin-5-yl}phenyl)oxy]ethyl}-1,5-dimethylpyrazol-3-yl)-2-methylpropan-1-ol] the value was 1.71 nM; for `CNCc1cnn2ccc(-c3ccc(F)cc3OCCc3c(C(O)C(C)(C)C)nn(C)c3C)cc12` (stereo not shown) [Compound 34, 1-(4-{2-[(5-fluoro-2-{3-[(methylamino)methyl]pyrazolo[1,5-a]pyridin-5-yl}phenyl)oxy]ethyl}-1,5-dimethylpyrazol-3-yl)-2,2-dimethylpropan-1-ol], 1.93 nM.
As to `CNCc1cnn2ccc(-c3ccc(F)cc3OCCc3c(C(O)C(C)C)nn(C)c3C)cc12` (stereo not shown) [Compound 36, 1-(4-{2-[(5-fluoro-2-{3-[(methylamino)methyl]pyrazolo[1,5-a]pyridin-5-yl}phenyl)oxy]ethyl}-1,5-dimethylpyrazol-3-yl)-2-methylpropan-1-ol], at NMT1 enzyme, the IC50 turned out to be 1.96 nM.
